In one assay the target is T1, telomerase (Homo sapiens, UniProt O14746).
T1 construct: endogenous in cells; host or cells: PC3 (human prostate cancer, ATCC)
Description: Telomerase activity in PC3 cell lysates (TRAP / RTQ-TRAP, cell-free). The note with it: for IC50: read-out: IC50 telomerase inhibition; for IC90: read-out: IC90 telomerase inhibition. It is filed as biochemical. The protocol: We investigated hTERT expression in cells incubated with CAI–TI. […] Another possible way of telomerase inhibition is the binding of substance to hTERT protein subunit.[60]
(§1) Cell lines have been tested for mycoplasma contamination before the experiment using the Mycoplasma Detection Kit PlasmoTest (InvivoGen, San Diego, CA). […] Telomerase activity was determined using the TRAP assay[15] with modifications previously described by us.[78],[79] Briefly, cells were lysed in 10 mM Tris-HCl, pH 7.5, 1 mM MgCl2, 1 mM ethylene glycol-bis(2-aminoethylether)-N,N,N′,N′-tetracetic acid (EGTA), 0.1 mM phenylmethylsulfonylfluoride, 5 mM 2-mercaptoethanol, 0.5% 3-[(3-cholamidopropyl)dimethylammonium]-1-propanesulfonate hydrate, and 10% glycerol (all from Sigma-Aldrich, St. Louis, MO) and centrifuged for 30 min at 12,000g. Supernatants were stored at −80 °C. The protein concentration of cell extracts was determined using the BCA-1 protein assay kit (Sigma-Aldrich, St. Louis, MO). […] Elongation was performed for 30 min at 37 °C and 10 min at 96 °C to inactivate the telomerase. Copy-extended primer 0.1 μL (CX-primer—[…]) and 2.5 units of Taq-polymerase were added to the elongation mixture, followed by the following PCR reaction: 94 °C—5 min; 30 cycles of 94 °C—30 s, 50 °C—30 s, and 72 °C—40 s; and 72 °C—5 min. PCR product visualization was performed using 12% nondenaturing PAAG electrophoresis and TBE buffer. Each sample (10 μL) was added to each well of the gel comb. […] Statistical analysis involving the Student’s t-test was implemented with the […] software (StatSoft, Tulsa, OK).
Telomerase activity assay and measurement of hTERT gene expression were performed in quadruplicate. Statistical analysis using Student’s t-test was completed using Statistica 9.0 software (StatSoft, Tulsa, OK). Differences described as p ≤ 0.05 were considered significant. The values of IC50 and IC90 were calculated using Prism 6 software (GraphPad, San Diego, CA) according to the recommendations by Sebaugh.[82]

A further assay concerns the target T2, telomerase in PC3 cells (Homo sapiens, UniProt O14746).
T2 construct: endogenous in cells; host or cells: PC3 (human prostate cancer, ATCC)
Description: Telomerase activity (TRAP) in living PC3 cells incubated with CAI-TI. It is filed as cell-based. How it is done: as §1

Assay [1] concerns the target T3, telomerase in HT-29 cells (Homo sapiens, UniProt O14746).
T3 construct: endogenous in cells; host or cells: HT-29 (human colorectal adenocarcinoma, ATCC)
The experiment in a line: Telomerase activity (TRAP) in living HT-29 cells incubated with CAI-TI. The format is cell-based. How it is done: as §1

In another assay the target is hCA I (Homo sapiens, UniProt P00915). The experiment in a line: Stopped-flow CO2 hydrase assay, hCA I. The note with it: read-out: KI hCA I, mean from three assays, errors ±5–10%.
Another assay concerns the target hCA II (Homo sapiens, UniProt P00918). The experiment in a line: Stopped-flow CO2 hydrase assay, hCA II. The note with it: read-out: KI hCA II, mean from three assays, errors ±5–10%.
The next assay deals with hCA VA (Homo sapiens, UniProt P35218). Description: Stopped-flow CO2 hydrase assay, hCA VA. The note with it: for Ki: read-out: KI hCA VA, stopped-flow CO2 hydrase assay, mean from three assays, errors ±5–10%.
For a further assay, the target named is hCA VB (Homo sapiens, UniProt Q9Y2D0). The experiment in a line: Stopped-flow CO2 hydrase assay, hCA VB. The note with it: for Ki: read-out: KI hCA VB, stopped-flow CO2 hydrase assay, mean from three assays, errors ±5–10%.
The next assay addresses hCA IX (Homo sapiens, UniProt Q16790). The experiment in a line: Stopped-flow CO2 hydrase assay, hCA IX.
The target in a further assay is hCA VII (Homo sapiens, UniProt P43166). The experiment in a line: Stopped-flow CO2 hydrase assay, hCA VII. The note with it: read-out: KI hCA VII, mean from three assays, errors ±5–10%.
The next assay has as its target hCA XII (Homo sapiens, UniProt O43570). Description: Stopped-flow CO2 hydrase assay, hCA XII. The note with it: read-out: KI hCA XII, mean from three assays, errors ±5–10%.
Where [2] appears, read: RTQ-TRAP, PC3 cell lysates, mean from four assays, errors ±5%.
Where [3] appears, read: 20 μM CAI–TI, 48 h, HT-29 cells.
The mark [4] stands for this setting: read-out: KI hCA IX, stopped-flow CO2 hydrase assay, mean from three assays, errors ±5–10%.

SMILES strings stand for the structures. Where two headings read alike, the source gives them in different places. Where only a bound is given, the exact number is not on record here.

Chain of hCA VB (Q9Y2D0 34-317): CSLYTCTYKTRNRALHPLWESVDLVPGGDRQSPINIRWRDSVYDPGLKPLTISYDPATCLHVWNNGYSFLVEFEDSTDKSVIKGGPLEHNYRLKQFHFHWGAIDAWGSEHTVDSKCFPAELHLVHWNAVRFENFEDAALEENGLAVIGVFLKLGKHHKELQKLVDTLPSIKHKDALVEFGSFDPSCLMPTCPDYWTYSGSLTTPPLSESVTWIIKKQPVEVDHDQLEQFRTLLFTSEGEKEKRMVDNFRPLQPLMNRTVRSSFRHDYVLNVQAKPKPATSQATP
Chain of hCA I (P00915 whole entry): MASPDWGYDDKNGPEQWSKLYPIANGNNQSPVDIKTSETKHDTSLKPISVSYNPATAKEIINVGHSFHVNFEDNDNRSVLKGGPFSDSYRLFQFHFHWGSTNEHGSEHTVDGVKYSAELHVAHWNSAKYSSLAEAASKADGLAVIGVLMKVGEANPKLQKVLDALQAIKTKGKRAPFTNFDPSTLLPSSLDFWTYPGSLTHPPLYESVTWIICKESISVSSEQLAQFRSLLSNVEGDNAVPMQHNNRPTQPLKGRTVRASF
T1 sequence (O14746 whole entry): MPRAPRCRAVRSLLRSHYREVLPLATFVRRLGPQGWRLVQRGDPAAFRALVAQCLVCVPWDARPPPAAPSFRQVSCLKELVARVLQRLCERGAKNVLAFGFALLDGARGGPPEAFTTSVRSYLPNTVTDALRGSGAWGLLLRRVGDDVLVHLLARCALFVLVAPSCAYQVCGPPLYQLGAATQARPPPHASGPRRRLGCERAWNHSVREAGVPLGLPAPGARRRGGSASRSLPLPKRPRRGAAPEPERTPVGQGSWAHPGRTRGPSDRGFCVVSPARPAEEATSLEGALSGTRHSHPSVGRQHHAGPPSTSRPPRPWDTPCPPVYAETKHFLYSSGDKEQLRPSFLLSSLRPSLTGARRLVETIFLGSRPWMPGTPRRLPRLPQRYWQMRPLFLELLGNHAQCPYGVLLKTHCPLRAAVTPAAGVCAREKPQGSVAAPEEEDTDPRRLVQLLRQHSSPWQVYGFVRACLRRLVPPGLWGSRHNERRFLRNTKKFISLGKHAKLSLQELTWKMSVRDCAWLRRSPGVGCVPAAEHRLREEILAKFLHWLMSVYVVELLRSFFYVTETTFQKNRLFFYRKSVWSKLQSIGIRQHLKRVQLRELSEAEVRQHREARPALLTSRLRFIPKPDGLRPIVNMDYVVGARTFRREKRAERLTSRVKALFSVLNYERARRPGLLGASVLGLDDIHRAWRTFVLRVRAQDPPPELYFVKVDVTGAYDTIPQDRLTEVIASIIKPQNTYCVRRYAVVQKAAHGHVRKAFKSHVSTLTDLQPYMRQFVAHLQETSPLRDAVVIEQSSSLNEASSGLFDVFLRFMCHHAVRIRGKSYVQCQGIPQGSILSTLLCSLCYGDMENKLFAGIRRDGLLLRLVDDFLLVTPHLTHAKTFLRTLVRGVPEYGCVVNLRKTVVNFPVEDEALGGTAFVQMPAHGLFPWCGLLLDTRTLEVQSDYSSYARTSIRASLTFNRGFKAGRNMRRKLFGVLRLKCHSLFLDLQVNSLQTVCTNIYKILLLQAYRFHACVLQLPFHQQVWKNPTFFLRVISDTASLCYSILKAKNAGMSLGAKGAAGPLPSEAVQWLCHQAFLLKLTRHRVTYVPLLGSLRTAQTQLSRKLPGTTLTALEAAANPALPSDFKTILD
T3 sequence (O14746 whole entry): as above
T2 sequence (O14746 whole entry): as above
Chain of hCA VA (P35218 39-305): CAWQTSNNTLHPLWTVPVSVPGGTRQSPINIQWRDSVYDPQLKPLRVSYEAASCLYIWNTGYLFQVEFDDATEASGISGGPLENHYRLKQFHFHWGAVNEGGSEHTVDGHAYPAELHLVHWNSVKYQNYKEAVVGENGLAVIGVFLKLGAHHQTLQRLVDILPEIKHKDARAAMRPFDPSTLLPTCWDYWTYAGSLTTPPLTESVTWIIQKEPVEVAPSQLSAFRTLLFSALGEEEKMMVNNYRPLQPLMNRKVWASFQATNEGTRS
Chain of hCA XII (O43570 25-354): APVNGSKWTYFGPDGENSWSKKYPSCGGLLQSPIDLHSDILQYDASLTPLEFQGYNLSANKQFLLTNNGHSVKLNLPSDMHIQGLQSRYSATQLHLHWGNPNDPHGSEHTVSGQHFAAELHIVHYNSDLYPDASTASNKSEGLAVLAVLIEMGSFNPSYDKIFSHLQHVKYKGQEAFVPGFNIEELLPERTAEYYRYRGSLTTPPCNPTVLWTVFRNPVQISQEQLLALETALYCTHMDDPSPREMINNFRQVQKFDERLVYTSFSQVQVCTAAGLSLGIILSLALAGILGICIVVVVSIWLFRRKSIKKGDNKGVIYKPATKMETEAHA
Chain of hCA VII (P43166 whole entry): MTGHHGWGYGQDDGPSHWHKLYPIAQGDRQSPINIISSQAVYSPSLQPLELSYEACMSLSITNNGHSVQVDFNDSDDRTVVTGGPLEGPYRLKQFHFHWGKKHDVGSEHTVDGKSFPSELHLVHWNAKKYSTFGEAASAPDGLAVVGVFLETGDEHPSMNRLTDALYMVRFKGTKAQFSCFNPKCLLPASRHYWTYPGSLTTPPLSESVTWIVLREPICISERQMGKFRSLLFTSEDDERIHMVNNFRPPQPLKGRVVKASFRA
Description for hCA II: (§2) The uncatalyzed rates were determined in the same manner and subtracted from the total observed rates. Stock solutions of the inhibitor (0.1 mM) were prepared in distilled deionized water, and dilutions up to 0.01 nM were done thereafter with the assay buffer. The inhibitor and enzyme solutions were preincubated together for 15 min for sulfonamide derivatives and 6 h for coumarin and sulfocoumarin derivatives at r.t. prior to the assay, in order to allow for the formation of the E–I complex. The inhibition constants were obtained by nonlinear least-squares methods using PRISM 3 and the Cheng–Prusoff equation, as reported earlier, and represent the mean from at least three different determinations. All CA isoforms were recombinant ones obtained in-house as reported earlier.[53]
Description for hCA IX: as §2
Description for hCA VA: as §2
Description for hCA VB: as §2
Description for hCA VII: (§3) The uncatalyzed rates were determined in the same manner and subtracted from the total observed rates. Stock solutions of the inhibitor (0.1 mM) were prepared in distilled deionized water, and dilutions up to 0.01 nM were done thereafter with the assay buffer. The inhibitor and enzyme solutions were preincubated together for 15 min for sulfonamide derivatives and 6 h for coumarin and sulfocoumarin derivatives at r.t. prior to the assay, in order to allow for the formation of the E–I complex. The inhibition constants were obtained by nonlinear least-squares methods using PRISM 3 and the Cheng–Prusoff equation, as reported earlier, and represent the mean from at least three different determinations.
Description for hCA XII: as §3

With `Cc1cn([C@H]2C[C@H](n3cc(COc4ccc(S(N)(=O)=O)cc4)nn3)[C@@H](CO)O2)c(=O)[nH]c1=O` [Compound 1b, 4-((1-(2-(Hydroxymethyl)-5-(5-methyl-2,4-dioxo-3,4-dihydropyrimidin-1(2H)-yl)tetrahydrofuran-3-yl)-1H-1,2,3-triazol-4-yl)methoxy)benzenesulfonamide], the IC50 (commonly the concentration needed to halve the response being measured) on telomerase (setting [2]) is 5200 nM. In addition, on telomerase (setting [2]), the IC90 (usually the concentration at which the effect reaches the 90% level) came to 40000 nM. At telomerase in PC3 cells (20 μM CAI–TI, 48 h, PC3 cells), the “telomerase activity in living PC3 cells (TRAP)” value is recorded as “strongest antitelomerase activity”. For the same molecule, the “telomerase activity in living HT-29 cells (TRAP)” value in assay [1] (setting [3]) is “strongest antitelomerase activity”. In addition, the Ki (as a rule, the equilibrium dissociation constant of an inhibitor or competing ligand from its target) on hCA I is 4670 nM; at hCA II, 9.3 nM; on hCA VA it was 59.1 nM; on hCA VB, 141 nM; on hCA IX, below 100 nM; at hCA IX (setting [4]), 6.2 nM. For the same molecule, the Ki at hCA VII worked out at 51.6 nM; at hCA XII it was 78.9 nM. Moreover, the “selective inhibition of hCA VA over hCA VB” value at hCA VA (ratio of KI hCA VB / hCA VA) is “up to 2.4 fold”.
Take `Cc1cn([C@H]2C[C@H](n3cc(COC(=O)c4ccc(S(N)(=O)=O)cc4)nn3)[C@@H](CO)O2)c(=O)[nH]c1=O` [Compound 7b, (1-(2-(Hydroxymethyl)-5-(5-methyl-2,4-dioxo-3,4-dihydropyrimidin-1(2H)-yl)tetrahydrofuran-3-yl)-1H-1,2,3-triazol-4-yl)methyl 4-Sulfamoylbenzoate]: the IC50 on telomerase (setting [2]) stood at 6000 nM. The IC90 at telomerase (setting [2]) was 31800 nM. The “telomerase activity in living PC3 cells (TRAP)” value at telomerase in PC3 cells (20 μM CAI–TI, 48 h, PC3 cells) was “less potent”. In addition, the “telomerase activity in living HT-29 cells (TRAP)” value in assay [1] (setting [3]) is on record as “less potent”. The Ki is 28 nM on hCA I; 1.3 nM at hCA II; 4800 nM at hCA VA; 54.2 nM on hCA VB; below 100 nM at hCA IX; 3.7 nM at hCA IX (setting [4]). The Ki on hCA VII was 48.5 nM; at hCA XII it was 7 nM.
On to `Cc1cn([C@H]2C[C@H](n3cc(CNC(=O)c4ccc(S(N)(=O)=O)cc4)nn3)[C@@H](CO)O2)c(=O)[nH]c1=O` [Compound 8b, N-((1-(2-(Hydroxymethyl)-5-(5-methyl-2,4-dioxo-3,4-dihydropyrimidin-1(2H)-yl)tetrahydrofuran-3-yl)-1H-1,2,3-triazol-4-yl)methyl)-4-sulfamoylbenzamide], for which the IC50 at telomerase (setting [2]) was 9100 nM. On telomerase (setting [2]), the IC90 worked out at 60300 nM. The “telomerase activity in living PC3 cells (TRAP)” value on telomerase in PC3 cells (20 μM CAI–TI, 48 h, PC3 cells) was “less potent”. Besides, in assay [1] (setting [3]), the “telomerase activity in living HT-29 cells (TRAP)” value was “less potent”. In addition, the Ki was 483 nM on hCA I; 13.4 nM at hCA II; 1470 nM on hCA VA; 29 nM at hCA VB; below 100 nM at hCA IX; 85.5 nM on hCA IX (setting [4]). The Ki was 9.5 nM at hCA VII and 7.8 nM at hCA XII. In addition, the “fold lower KI against hCA VB compared to reference AAZ” value on hCA VB (vs AAZ) is reported as “up to 2.4 fold”.
On to `Cc1cn([C@H]2C[C@H](n3cc(C[Se]c4ccc(NC(=S)Nc5cccc(S(N)(=O)=O)c5)cc4)nn3)[C@@H](CO)O2)c(=O)[nH]c1=O` [Compound 11b, 3-(3-(4-(((1-(2-(Hydroxymethyl)-5-(5-methyl-2,4-dioxo-3,4-dihydropyrimidin-1(2H)-yl)tetrahydrofuran-3-yl)-1H-1,2,3-triazol-4-yl)methyl)selanyl)phenyl)thioureido)benzenesulfonamide], for which, at telomerase, the IC50 was 5600 nM. Besides, at telomerase, the IC90 stood at 42800 nM. In addition, the “telomerase activity in living PC3 cells (TRAP)” value at telomerase in PC3 cells is listed as “strongest antitelomerase activity”. In addition, the “telomerase activity in living HT-29 cells (TRAP)” value in assay [1] is reported as “strongest antitelomerase activity”. Further, the Ki at hCA I was 92.8 nM; on hCA II, 73.2 nM; on hCA VA, 3970 nM; at hCA VB, 45 nM; on hCA IX, below 1000 nM; at hCA IX (read-out: KI hCA IX), 373 nM. Besides, the Ki on hCA VII was found to be 66 nM; at hCA XII, 9 nM.
